Literature values in patent US11325978B2, “Compositions and methods for treating beta-globinopathies” (priority 2018, dated 2022).

Tested on: RIOK3
Details: collection of 72 inhibitors against 456 human kinases (Davis et al. 2011)

## COc1cc(Nc2c(C#N)cnc3cc(OCCCN4CCN(C)CC4)c(OC)cc23)c(Cl)cc1Cl [bosutinib, Bosutinib]
  inhibition of RIOK3 kinase activity: inhibit RIOK3 kinase activity
